Article PMC10072326, “Promising anticancer agents based on 8-hydroxyquinoline hydrazone copper(II) complexes” (Frontiers in Chemistry, 2023)

Experiments:
[1] = Thermodynamic solubility at pH 7.4; type: physicochemical; details: Cu(II) complexes; pH 7.40; 20 mM HEPES; 25.0°C
Procedure: Thermodynamic solubility (S) was measured for the new ligands, L^7 and L^8, since data for the rest of the series was previously reported (9), and for selected Cu(II) complexes: 1, 5 and 6. Solubility was measured for the saturated solutions in water at pH 7.40 in 20 mM HEPES at 25.0 ± 0.1 °C. The concentration was determined by UV-Vis spectrophotometry using the stock solutions of the compounds with known concentrations dissolved in 100% DMSO, 50% and 25% (v/v) DMSO/buffered aqueous solutions for the calibration.

[2] = molecular target: bovine serum albumin (BSA) (Bos taurus, UniProt P02769); assay: BSA fluorescence quenching; type: binding; set-up: Affinity constant K ± SD: unit not given here; details: fluorescence quenching; HypSpec2014; 1:1 species assumed
Procedure: To evaluate the interaction of the compounds, both organic and Cu(II) complexes, with bovine serum albumin (BSA) fluorescence spectra were measured. In a typical fluorescence experiment, to a solution of 1.5 μM of BSA in the same buffer, successive aliquots of a stock solution of each compound in DMSO were added directly to the cuvette (optical path 1.0 cm). The fluorescence emission was recorded between 310 and 600 nm with excitation at 295 nm. The final DMSO % was kept below 2% (v/v). The Stern-Volmer plots were built using the emission at 340 nm and blank samples (in the absence of BSA) with the same concentration of the complexes were recorded and subsequently subtracted from the corresponding emission spectra containing the fluorophore. Moreover, the fluorescence emission intensity was corrected for reabsorption and inner filter effects using UV-Vis absorption data recorded for each sample, since all complexes absorb in the measured wavelength range (19, 20).
The interaction of the organic compounds and Cu(II) complexes with BSA was monitored by studying the quenching of albumin’s fluorescence emission with increasing concentrations of the complexes (25). Overall, the intensity of the Trp emission decreases with the addition of the complexes, except for 8 (see Figs. S19). The Stern-Volmer relationship was used to analyse the fluorescence quenching process:
where I0 and I are the fluorescence intensities in the absence and in the presence of quencher, kq is the bimolecular quenching rate, τ0 is the fluorophore lifetime in the absence of the quencher (6.22 ns) (26) and [Q] is the quencher concentration. […] This linear relationship is obeyed for all complexes except 5, where a downward curvature is observed. This can be an indication of two distinct binding sites, corresponding to two populations of fluorophores, one being accessible and other inaccessible or buried inside the protein. In such cases, the Stern-Volmer relation can be modified to (27):
where ΔI = I0 – I, Ka is the Stern-Volmer constant for the accessible fraction and fa is the fraction of accessible fluorophore. […] As first approximation, the total concentration of quencher was used to check the quenching mechanism. […] As all systems presented high absorbance values in the measured range of wavelengths, no excess of quencher was used and, therefore, 1:1 species will be assumed for these interactions.

A-375 cells = assay: Sulforhodamine B (SRB) cell viability assay; type: cell-based; details: 72 h
Procedure: (§1) Copper compounds were tested, along with the free ligands and cisplatin as the positive control, for their cytotoxicity on both melanoma (A-375) and lung adenocarcinoma (A-549) cell lines in the concentration range 0.78–50 μM. Following 72 h of incubation, cell viability was measured via sulforhodamine B (SRB) assay (Supplementary Figure S25).
(§2) A-375 cells (ATCC, CRL-3222) were grown in Dulbecco’s Modified Eagle Medium with high glucose (Gibco #11965118) and A-549 (ATCC, CCL-185) cells were grown in Dulbecco’s Modified Eagle Medium F-12 (Gibco #11320033), supplemented with 10% FBS (Gibco, #10500064) and Penicillin-Streptomycin (10,000 U/mL, Gibco, #15140122). Cells were incubated at 37 °C, 5% CO2 incubator and subcultured every 3 days.
(§3) All the tested complexes were dissolved in DMSO (10 mM stock solution), and aliquots were stored at -20 °C, thawed on the experiment day and used only once. For SRB cell viability assay, A-375 and A-549 cells were seeded on 96-well plates (4×10^3 cells/well) and treated with serial dilutions of indicated compounds (with a concentration range of 0-50 μM, 72 h). Trichloroacetic acid (TCA) was added to wells for fixation at a final concentration of 10%, for 1 h at 4 °C. Each well was washed five times with ddH2O, dried, and incubated with 0.4% (w/v) SRB dye (50 µL/well) for 30 min at room temperature. The wells were washed with 1% acetic acid (v/v) five times, and 150 µL of 10 mM Tris solution was added to dissolve the stain. Colorimetric measurements were taken at λ = 564 nm. Viability percentage was calculated as follows: % Cell Viability = [100 × (sample Abs.-blank) / (non-treated control Abs.-blank)].

A-549 cells = assay: Sulforhodamine B (SRB) cell viability assay; type: cell-based; details: 72 h
Procedure: as §1, §2, §3

[3] = test system: Klebsiella pneumoniae ATCC 49619; assay: MIC determination; type: cell-based; details: K. pneumoniae; 18 h
Procedure: (§4) Wild-type Escherichia coli K-12 AG100 strain [argE3 thi-1 rpsL xyl mtl Δ(gal-uvrB) supE44] expressing the AcrAB TolC efflux pump at its basal level and Klebsiella pneumoniae ATCC 49619 Gram-negative strains were studied in the experiments. Sensitive (ATCC 25928) and the methicillin-resistant (MRSA 272123) subspecies of Staphylococcus aureus were used as Gram-positive strains in the assays.
(§5) Minimum inhibitory concentration (MIC) values of selected compounds were determined in 96-well plates based on the Clinical and Laboratory Standard Institute guidelines (CLSI guidelines). The stock solutions of the compounds were dissolved in DMSO using 1.3 μL of Mueller Hinton Broth, and then two-fold serial dilutions were performed. The starting concentration of the compounds was 100 μM. Then 10^‒4 dilution of an overnight bacterial culture in 100 μL of medium was added to each well, except for the medium control wells.

[4] = test system: Escherichia coli K-12 AG100; assay: MIC determination; type: cell-based; details: E. coli; 18 h
Procedure: as §4, §5

S. aureus MRSA 272123 = assay: MIC determination; type: cell-based, Staphylococcus aureus; details: 18 h
Procedure: as §4, §5

S. aureus ATCC 25928 = assay: MIC determination; type: cell-based, Staphylococcus aureus; details: S. aureus ATCC 25928 (sensitive); 18 h
Procedure: as §4, §5

[5] = Cu(II) complex formation and stability constants by UV-Vis spectrophotometric titrations; type: physicochemical; details: physiological pH; 1 μM concentration
Procedure: The complex formation processes of L^1, L^5 and L^6 with Cu(II) ions were studied by UV-Vis spectrophotometry in 30% (v/v) DMSO/H2O using relatively low concentrations (c L = 50–60 μM), due to the limited water solubility of the ligand precursors as well as of the Cu(II) complexes (see thermodynamic solubility data in aqueous media in Table 2 and Table 3). L^1 was selected as the simplest compound of the studied ligand series, whereas L^5 and L^6 were selected to compare with the oxidovanadium(IV) system ([Ribeiro et al., 2022]). The solution stability and stoichiometry of the Cu(II) complexes were determined by the evaluation of the UV-Vis spectra recorded at various pH values (representative spectra are shown for the Cu(II) ‒ L^1 and Cu(II) ‒ L^6 systems in Figures 3A,B and for Cu(II) ‒ L^5 in Supplementary Figure S10A). The computed overall stability constants and pK a values of the complexes are collected in Table 3. The formation of only mono-ligand complexes was found with [Cu(LH)]^+, [Cu(L)], and [Cu(LH‒1)]^‒ (and [Cu(LH‒2)]^2‒ in the case of L^6) compositions, and their computed molar absorbance spectra are shown in Figures 3C, D, Supplementary Figure S10B.
An Agilent Cary 8454 diode array spectrophotometer was used to record the UV-Vis spectra in the range of 200–800 nm. Titrations were carried out with a Metrohm 665 Dosimat burette and an Orion 710A pH-meter equipped with a Metrohm combined electrode. A ionic strength of 0.10 M (KCl) was used to keep the activity coefficients constant. The titrations were performed with 0.10 M carbonate-free KOH solution in a 30% (v/v) DMSO/H2O solvent mixture. […] The average water ionization constant (pKw) is 14.53 ± 0.05 in the 30% (v/v) DMSO/H2O solvent mixture. The pKa values of the ligand precursors and the logβ values for the Cu(II) complexes were determined in 30% (v/v) DMSO/H2O in the same way as it was done in our previous publications (9, 11).
Spectrophotometric titrations were carried out on samples containing the ligands at 50 μM concentration, in the pH range from 2.0 to 11.5 in the absence or the presence of 1, 0.5 or 0.25 equiv. Cu(II) ions, using 10 cm^3 sample volumes. Proton dissociation constants (pKa) of the ligand precursors as well as stoichiometry and stability constants of the Cu(II) complexes (β) were calculated by the computer program PSEQUAD (12). The usual definition of overall (β) and stepwise (K) formation constants is used: […]

Sequence of bovine serum albumin (BSA) (P02769 25-607): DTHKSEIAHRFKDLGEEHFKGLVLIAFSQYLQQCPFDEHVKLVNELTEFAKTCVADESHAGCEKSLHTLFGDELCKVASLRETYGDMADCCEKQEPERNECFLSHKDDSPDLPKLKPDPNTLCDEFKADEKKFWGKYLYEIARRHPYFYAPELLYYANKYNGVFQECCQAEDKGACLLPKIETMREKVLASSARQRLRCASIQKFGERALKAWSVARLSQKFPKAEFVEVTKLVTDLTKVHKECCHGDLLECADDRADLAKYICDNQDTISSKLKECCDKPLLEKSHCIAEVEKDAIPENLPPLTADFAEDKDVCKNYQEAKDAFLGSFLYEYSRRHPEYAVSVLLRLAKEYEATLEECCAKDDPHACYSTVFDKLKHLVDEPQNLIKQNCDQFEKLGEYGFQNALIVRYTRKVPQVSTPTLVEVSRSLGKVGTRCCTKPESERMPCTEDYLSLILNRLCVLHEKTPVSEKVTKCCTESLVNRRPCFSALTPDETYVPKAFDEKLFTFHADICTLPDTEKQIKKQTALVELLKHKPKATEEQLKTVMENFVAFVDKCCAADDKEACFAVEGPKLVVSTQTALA

Row | SMILES | thermodynamic solubility S 7.4 [1] | Affinity constant K ± SD [2] | IC50 (A-375 cells) | IC50 (A-549 cells) | MIC [3] | MIC [4] | MIC (S. aureus MRSA 272123) | MIC (S. aureus ATCC 25928) | level of dissociation of the complex [5]
1 | O=C([N-]N=Cc1ccc2cccc([O-])c2n1)c1ccc(Cl)cc1.O=C([N-]N=Cc1ccc2cccc([O-])c2n1)c1ccc(Cl)cc1.O=C([N-]N=Cc1ccc2cccc([O-])c2n1)c1ccc(Cl)cc1.[Cu+2].[Cu+2].[Cu+2] [Complex 2, [Cu(L^2)]3] | < 1 µM | (8.3 ± 0.1) × 10^4 | 6.5 ± 0.8 µM | 9.3 ± 0.4 µM | – | – | – | – | –
2 | CC(=O)[O-].Cc1ccc(C(=O)NN=Cc2ccc3cccc([O-])c3n2)cc1.[Cu+2] [Complex 4, [Cu(HL^4)(AcO)]] | 4.0 ± 0.2 µM | (3.2 ± 1.0) × 10^6 | 2 ± 1.3 µM | 3.9 ± 0.6 µM | – | – | – | – | –
3 | O=C([N-]N=Cc1ccc2cccc([O-])c2n1)c1ccc(O)cc1.O=C([N-]N=Cc1ccc2cccc([O-])c2n1)c1ccc(O)cc1.O=C([N-]N=Cc1ccc2cccc([O-])c2n1)c1ccc(O)cc1.[Cu+2].[Cu+2].[Cu+2] [Complex 6, [Cu(L^6)]3] | – | (2.7 ± 0.8) × 10^5 | 13.6 ± 0.9 µM | 16 ± 0.3 µM | > 100 µM | > 100 µM | > 100 µM | > 100 µM | ca. 5%
4 | [Cl][Cu][Cl] [CuCl2, reference compound] | – | – | – | – | > 100 µM | > 100 µM | > 100 µM | > 100 µM | –
5 | N.N.[Cl][Pt][Cl] [cisplatin, reference compound] | – | – | 11.2 ± 0.3 µM | 16.5 ± 3.4 µM | – | – | – | – | –
